According to patent US20060287397A1, “Dl-hydroxy-alkyl-phenylamides having anticonvulsive activity” (priority 2002, published 2006):
Read-outs that look alike come from different tables or passages of the source.

Legend:
[1] = tested on: Seizures induced by pentylenetetrazol (PTZ) in mice; test: Pentylenetetrazol test (anticonvulsant activity); assay type: in vivo; conditions: for ED50: Mus musculus, ip, 0.5 h; for ED50 / ED50 PTZ: male CF-1 mice, compound i.p., pentylenetetrazol 100 mg kg^−1 i.p. 30 min after, end point suppression of clonic seizures and death; for anticonvulsant activity relative to that of the non-halogenated compounds: pentylenetetrazol test, mice, from Table 1
Protocol: Male albino mice CF-1 strain (National Institute of Virology, Mexico City) weighing 18-25 g were housed in groups of 20, at room temperature (20-24° C.), with tap water and food (pellet type Blue Bonnet) ad libitum, with a 12-h light-dark cycle. DL-2-hydroxy-2-phenyl butyramide, DL-3-hydroxy-3-phenyl pentanamide, DL-4-hydroxy-4-phenyl hexanamide and pentylenetetrazol were dissolved in water and compounds 1-10 were dissolved in a 30% polyethyleneglycol-400 solution. All the compounds used were administered intraperitoneally (i.p.). The convulsant dose of pentylenetetrazol inducing seizures and death in 100% of mice (CD100) was determined and used in the test. CD100 value obtained was 100 mg kg^1. To determine the dose-response curves five separate groups of 10-20 mice were dosed i.p. with the test compounds, and pentylenetetrazol, 100 mg kg^−1, i.p., was administered at 30 min after. The suppression of clonic seizures and death was considered the end point of the test. […] The ED50 and 95% confidence intervals were calculated by the method of Litchfield and Wilcoxon (Table 1). See Litchfield et al., J. Pharmacol. Exp. Ther. 96, 99 (1949).

[2] = tested on: seizures provoked by pentylenetetrazole, bicuculline, 4-aminopyridine, thiosemicarbazide and maximal electroshock; conditions: mice; cited from earlier work
hippocampal kindling [3] = conditions: cats; cited from earlier work
hippocampal kindling [4] = conditions: rats; cited from earlier work
[5] = tested on: γ-aminobutyric acid withdrawal syndrome; conditions: rats; cited from earlier work
focal spike activity = conditions: genetic absence epilepsy rats of the Strasbourg model; cited from earlier work

Question: What does the source list for `CCC(O)(C(N)=O)c1ccc(C(F)(F)F)cc1` (racemic) [Compound 2, DL-2-hydroxy-2-(4′-trifluoromethylphenyl)butyramide]?
Answer: ED50 [1]: 23 mg/kg; anticonvulsant activity relative to that of the non-halogenated compounds [1]: twice, threefold or more than fourfold

Question: For `CCC(O)(C(N)=O)c1ccc(Cl)c(Cl)c1` (racemic) [Compound 3, DL-2-hydroxy-2-(3′,4′-dichlorophenyl)butyramide], which ED50 [1] is on record?
Answer: 10 mg/kg

Question: What about the “anticonvulsant activity relative to that of the non-halogenated compounds” value [1] of the same compound?
Answer: more than fivefold, sixfold or sevenfold

Question: Which results are given for `CCC(O)(CCC(N)=O)c1ccc(Cl)c(Cl)c1` (racemic) [Compound 9, DL-4-hydroxy-4-(3′,4′-dichlorophenyl)hexanamide]?
Answer: ED50 [1]: 12 mg/kg; anticonvulsant activity relative to that of the non-halogenated compounds [1]: twice, threefold or more than fourfold

Question: Which results are given for `CCC(O)(CC(N)=O)c1ccc(Br)cc1` (racemic) [Compound 8, DL-3-hydroxy-3-(4′-bromophenyl) pentanamide]?
Answer: ED50 [1]: 8 mg/kg; anticonvulsant activity relative to that of the non-halogenated compounds [1]: more than fivefold, sixfold or sevenfold

Question: For `CCC(O)(C(N)=O)c1cccc([N+](=O)[O-])c1` (racemic) [Compound 6, DL-2-hydroxy-2-(3′-nitrophenyl)butyramide], which ED50 [1] is on record?
Answer: 36 mg/kg

Question: And the “anticonvulsant activity relative to that of the non-halogenated compounds” value [1]?
Answer: twice, threefold or more than fourfold

Question: What does the source list for `CCC(O)(C(N)=O)c1ccc(Br)cc1` (racemic) [Compound 5, DL-2-hydroxy-2-(4′-bromophenyl)butyramide]?
Answer: ED50 [1]: 8 mg/kg; anticonvulsant activity relative to that of the non-halogenated compounds [1]: more than fivefold, sixfold or sevenfold

Question: Which ED50 [1] does the source give for `CCC(O)(CC(N)=O)c1ccc(Cl)c(Cl)c1` (racemic) [Compound 7, DL-3-hydroxy-3-(3′,4′-dichlorophenyl)pentanamide] here?
Answer: 16 mg/kg

Question: And the “anticonvulsant activity relative to that of the non-halogenated compounds” value [1]?
Answer: twice, threefold or more than fourfold

Question: Which results are given for `CCC(O)(CC(N)=O)c1ccccc1` (racemic) [DL-3-hydroxy-3-Phenyl pentanamide, DL-3-hydroxy-3-phenylpentanamide]?
Answer: ED50 PTZ [1]: 49 mgkg^−1; protection against seizures [2]: protect mice against seizures; protection against hippocampal kindling (hippocampal kindling [3]): protect cats and rats against hippocampal kindling; protection against hippocampal kindling (hippocampal kindling [4]): protect cats and rats against hippocampal kindling; protection against γ-aminobutyric acid withdrawal syndrome [5]: protects rats against the γ-aminobutyric acid withdrawal syndrome; focal spike activity (focal spike activity): significant decrease of focal spike activity

Question: For `CCC(O)(C(N)=O)c1cccc(Br)c1` (racemic) [Compound 4, DL-2-hydroxy-2-(3′-bromophenyl)butyramide], which ED50 [1] is on record?
Answer: 8 mg/kg

Question: What about the “anticonvulsant activity relative to that of the non-halogenated compounds” value [1] of the same compound?
Answer: more than fivefold, sixfold or sevenfold

Question: Which ED50 [1] does the source give for `CCC(O)(CCC(N)=O)c1ccc(Br)cc1` (racemic) [Compound 10, DL-4-hydroxy-4-(4′-bromophenyl)hexanamide] here?
Answer: 9 mg/kg

Question: And the “anticonvulsant activity relative to that of the non-halogenated compounds” value [1]?
Answer: more than fivefold, sixfold or sevenfold

Question: What does the source list for `CCC(O)(C(N)=O)c1cc(C(F)(F)F)cc(C(F)(F)F)c1` (racemic) [Compound 1, DL-2-hydroxy-2-(3′,5′-bistrifluoromethylphenyl) butyramide]?
Answer: ED50 [1]: 10 mg/kg; anticonvulsant activity relative to that of the non-halogenated compounds [1]: more than fivefold, sixfold or sevenfold

Question: For `CCC(O)(CCC(N)=O)c1ccccc1` (racemic) [DL-4-hydroxy-4-Phenylhexanamide, DL-4-hydroxy-4-phenylhexanamide], which “ED50 PTZ” value [1] is on record?
Answer: 55 mgkg^−1

Question: And the protection against seizures [2]?
Answer: protect mice against seizures

Question: What about the “protection against hippocampal kindling” value (hippocampal kindling [3]) of the same compound?
Answer: protect cats and rats against hippocampal kindling

Question: And the “protection against hippocampal kindling” value (hippocampal kindling [4])?
Answer: protect cats and rats against hippocampal kindling

Question: What does the source list for `CCC(O)(C(N)=O)c1ccccc1` (racemic) [DL-2-hydroxy-2-Phenyl butyramide, DL-2-hydroxy-2-phenylbutyramide]?
Answer: ED50 PTZ [1]: 58 mgkg^−1; protection against seizures [2]: protect mice against seizures; protection against hippocampal kindling (hippocampal kindling [3]): protect cats and rats against hippocampal kindling; protection against hippocampal kindling (hippocampal kindling [4]): protect cats and rats against hippocampal kindling
